Test results reported in patent US20220275534A1, “Peptide Library Production Method” (The University of Tokyo, priority 2018, published 2022).
Positions of bridges follow the written chain, without caps; N, C: chain ends. Non-standard residues stand in square brackets, D forms with d. No end group written: not given here. *: point of attachment. prenyl = prenyl group added to Trp by KgpF, CC(C)=CC*

What was measured:
KgpF = assay: Prenylation of artificial cyclic peptides with 160 μM KgpF at 0° C., 20 hours (Conditions 13/14 and 19/20; Examples 10, 14, 19; Tables 6 and 18); type: biochemical, Microcystis aeruginosa; set-up: key: 5: strong intensity; 4: medium intensity; 3: weak intensity; 2: very weak intensity; 1: no peak; N/A: not observed; conditions: for MALDI-TOF-MS peak intensity, Number of additions 1 / MALDI-TOF-MS peak intensity, Number of additions 2 / MALDI-TOF-MS peak intensity, Number of additions 0 / MALDI-TOF-MS peak intensity, Number of additions 3: Table 6, 160 μM KgpF, 2 mM DMAPP, 0° C., 20 hours; for MALDI-TOF-MS peak intensity, Number of additions 1: 1 prenyl added; for MALDI-TOF-MS peak intensity, Number of additions 2: 2 prenyl added; for MALDI-TOF-MS peak intensity, Number of additions 0: unmodified peptide peak; for MALDI-TOF-MS peak intensity, Number of additions 3: 3 prenyl added
Procedure: The artificial cyclic peptides Clone-M1 to M9 shown below were obtained by translation and synthesis in the artificial translation system (Conditions 13) developed by the present inventors. The peptides thus obtained were then reacted with 160 μM KgpF in the system shown in (Conditions 14) at 0° C. for 20 hours.
(Conditions 13) • FIT system: v8s/v11.0 • 19aa-Met: 0.5 mM • ClAc-D-Tyr-tRNA^fMetCUA: 90 μM • Reaction: 37° C., 60 min. • Scale: 2.5 μL scale
After the above reaction was performed, the reaction product was incubated at 25° C. for 12 minutes.
Then, a cyclization reaction was performed under the following conditions. • Translated mixture amount: 2.5 μL (mixture obtained by the above reaction) • EDTA: 18 mM • Reaction: 42° C., 60 min. • Scale: 2.75 μL scale
(Conditions 14) • Translated mixture amount: 2.75 μL (mixture obtained under (Conditions 13)) • KOH: 6.0 mM • Mg(OAc)2: 9.0 mM • Tris-HCl (pH 8.3) 15 mM • KgpF: 160 μM • DMAPP: 2 mM • Reaction: 0° C., 20 hours
The artificial cyclic peptides shown below were obtained by translation and synthesis in the artificial translation system (Conditions 19) developed by the present inventors. The peptides thus obtained were then reacted with 160 μM KgpF in the system shown in (Conditions 20) at 0° C. for 20 hours.
(Conditions 19) • FIT system: v8s/11.0 • 19aa-Met: 0.5 mM • ClAc-D-Tyr-tRNA^fMetCUA: 90 μM • Reaction: 37° C., 60 min. • Scale: 2.5 μL scale
(Conditions 20) • Translated mixture amount: 2.75 μL (mixture obtained under (Conditions 19)) • KOH: 6.0 mM • Mg(OAc)2: 9.0 mM • Tris-HCl (pH 8.3): 15 mM • KgpF: 160 μM • DMAPP: 2 mM • Reaction: 0° C., 20 hours
Then, the compound library was provided for a step of screening cyclic peptides having interaction with an enzyme MetAP1 (Human) as in the scheme shown in FIG. 8. It has been confirmed that with regards to some of the peptides shown in FIG. 10, peptides having these sequences are modified by prenylation as shown in Table 18 by bringing them into contact with KgpF under conditions shown in (Conditions 13) and (Conditions 14).

OltF v 2.1 = assay: Modification test of thioether-closed artificial cyclic peptides with 9.13 μM OltF v 2.1 (Example 16; Tables 11 and 12); type: biochemical, Planktothrix; set-up: key: 5: strong intensity; 4: medium intensity; 3: weak intensity; 2: very weak intensity; 1: no peak; N/A: not observed; conditions: OltF v 2.1 9.13 μM, DMAPP 2 mM, 37° C., 18 hours
Procedure: The artificial cyclic peptides shown in Table 11 and Table 12 were obtained by translation and synthesis in the artificial translation system (Conditions 23) developed by the present inventors. The peptides thus obtained were then reacted with 9.13 μM OltF in the system shown in (Conditions 24) at 37° C. for 18 hours. It is to be noted that OltF v 2.1 is an enzyme prepared from OltF used in (Conditions 22) while changing a purification manner.
(Conditions 23) • FIT system: v8s/v11.1 • 19aa-Met: 0.5 mM • ClAc-D or L-Tyr-tRNA^fMetCUA: 90 μM • Reaction: 37° C., 60 min. • Scale: 2.5 μL scale
(Conditions 24) • Translated mixture amount: 2.5 μL (mixture obtained under (Conditions 23)) • OltF v 2.1: 9.13 μM • DMAPP: 2 mM • Reaction: 37° C., 18 hours

[1] = Table 18, Conditions 13 and 14 (160 μM KgpF, 0° C., 20 hours), NSGGVS added to C terminal

Sequence of OltF v 2.1 (as listed by the source): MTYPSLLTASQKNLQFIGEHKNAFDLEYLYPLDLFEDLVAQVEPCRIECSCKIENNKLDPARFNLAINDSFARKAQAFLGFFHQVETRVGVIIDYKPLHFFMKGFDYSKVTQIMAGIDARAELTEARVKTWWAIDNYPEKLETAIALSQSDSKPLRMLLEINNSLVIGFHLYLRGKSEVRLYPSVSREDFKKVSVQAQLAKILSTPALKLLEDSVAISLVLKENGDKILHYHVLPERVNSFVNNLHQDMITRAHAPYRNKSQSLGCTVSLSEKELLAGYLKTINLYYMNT
Sequence of KgpF (as listed by the source): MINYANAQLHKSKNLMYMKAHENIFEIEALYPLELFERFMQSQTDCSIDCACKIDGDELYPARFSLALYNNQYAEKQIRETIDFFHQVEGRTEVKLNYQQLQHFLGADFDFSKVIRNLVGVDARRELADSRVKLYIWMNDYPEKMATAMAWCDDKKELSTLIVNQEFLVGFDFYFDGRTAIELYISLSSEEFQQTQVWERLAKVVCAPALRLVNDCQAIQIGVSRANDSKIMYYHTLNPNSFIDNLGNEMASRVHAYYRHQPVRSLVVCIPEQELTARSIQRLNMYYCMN

| Substance | MALDI-TOF-MS peak intensity, Number of additions 1 (KgpF) | MALDI-TOF-MS peak intensity, Number of additions 2 (KgpF) | MALDI-TOF-MS peak intensity, Number of additions 0 (KgpF) | Peak intensity, The number of prenyl groups added 0 (OltF v 2.1; Table 12) | Peak intensity, The number of prenyl groups added 1 (OltF v 2.1; Table 12) | also measured |
| --- | --- | --- | --- | --- | --- | --- |
| Clone-M1: artificial cyclic peptide containing a plurality of Trps ([dY]LRLNHTWSTWTSC; thioether (positions not given here); not fully specified (N-terminus, bridges); also: cyclic) | 1 | 5 | 1 | – | – | – |
| Clone-M2: artificial cyclic peptide containing a plurality of Trps (Ac-[dY]SAWHGKDNYDWFC; thioether (positions not given here); not fully specified (bridges)) | 5 | 1 | 1 | – | – | – |
| Clone-M3: artificial cyclic peptide containing a plurality of Trps (Ac-[dY]SWSPAWVRQADIC; thioether (positions not given here); not fully specified (bridges)) | 1 | 4 | 1 | – | – | – |
| Clone-M4: artificial cyclic peptide containing a plurality of Trps (Ac-[dY]RVSNTWWQRHRWC; thioether (positions not given here); not fully specified (bridges)) | 4 | 1 | 1 | – | – | MALDI-TOF-MS peak intensity, Number of additions 3 (KgpF): 1 |
| Clone-M5: artificial cyclic peptide containing a plurality of Trps (Ac-[dY]LWSKNSQPWPESC; thioether (positions not given here); not fully specified (bridges)) | 5 | 1 | 3 | – | – | – |
| Clone-M6: artificial cyclic peptide containing a plurality of Trps (Ac-[dY]ILSQENHVWSLWC; thioether (positions not given here); not fully specified (bridges)) | 5 | 5 | 1 | – | – | – |
| Clone-M7: artificial cyclic peptide containing a plurality of Trps (Ac-[dY]LWVLRSDNTPWVC; thioether (positions not given here); not fully specified (bridges)) | 4 | 5 | 1 | – | – | – |
| Clone-M8: artificial cyclic peptide containing a plurality of Trps (Ac-[dY]THEWPWRTGWTRC; thioether (positions not given here); not fully specified (bridges)) | 1 | 5 | 1 | – | – | MALDI-TOF-MS peak intensity, Number of additions 3 (KgpF): 1 |
| Clone-M9: artificial cyclic peptide containing a plurality of Trps (Ac-[dY]SFHWGLAVWDHNC; thioether (positions not given here); not fully specified (bridges)) | 1 | 5 | 1 | – | – | – |
| DNT034 (Ac-[dY]NNRERGSDYFWLPPC; thioether (positions not given here); not fully specified (bridges)) | – | – | – | 1 | 5 | – |
| DNT057 (Ac-[dY]RQFNRRTHYFWLPDC; thioether (positions not given here); not fully specified (bridges)) | – | – | – | 1 | 5 | – |
| DNT061 (Ac-[dY]NNRERGSDFFWFFPC; thioether (positions not given here); not fully specified (bridges)) | – | – | – | 2 | 5 | – |
| DNT062 (Ac-[dY]NNRERGSDGGWGGPC; thioether (positions not given here); not fully specified (bridges)) | – | – | – | 3 | 5 | – |
| DNT063 (Ac-[dY]NNRERGSDYYWYYPC; thioether (positions not given here); not fully specified (bridges)) | – | – | – | 2 | 5 | – |
| DNT065 (Ac-[dY]NNRERGSDNNWNNPC; thioether (positions not given here); not fully specified (bridges)) | – | – | – | 3 | 5 | – |
| DNT066 (Ac-[dY]NNRERGSDVVWVVPC; thioether (positions not given here); not fully specified (bridges)) | – | – | – | 4 | 5 | – |
| DNT070 ({CH2CO}-[dY]ISWNEFNSYFWLPITC; thioether N-17 (inferred); not fully specified) | – | – | – | 1 | 5 | Peak intensity, The number of prenyl groups added 2 (OltF v 2.1; Table 12): 1 |
| Met9: prenylated cyclic peptide identified by screening with MetAP1 as a target (Ac-[dY]KRKNCLVHVW(prenyl)HQCNSGGVS; thioether (positions not given here); not fully specified (C-terminus)) | – | – | – | – | – | Peak intensity, The number of prenyl groups added 0 (KgpF; [1]): 1; Peak intensity, The number of prenyl groups added 1 (KgpF; [1]): 5 |
| Met11: cyclic peptide SEQ ID NO: 363 identified by screening with MetAP1 as a target ({CH2CO}-[dY]HTDPFKAWHRRSCNSG; thioether N-14 (inferred); not fully specified) | – | – | – | – | – | Peak intensity, The number of prenyl groups added 0 (KgpF; [1]): 1; Peak intensity, The number of prenyl groups added 1 (KgpF; [1]): 5 |
| Met12: prenylated cyclic peptide identified by screening with MetAP1 as a target ({CH2CO}-[dY]YIIW(prenyl)HRHRIMTVCNSGGVS; thioether N-14 (inferred); not fully specified (C-terminus); also: C-terminus linked to its mRNA (mRNA display)) | – | – | – | – | – | Peak intensity, The number of prenyl groups added 0 (KgpF; [1]): 3; Peak intensity, The number of prenyl groups added 1 (KgpF; [1]): 4 |
| Met13: cyclic peptide SEQ ID NO: 364 identified by screening with MetAP1 as a target ({CH2CO}-[dY]VTWKGPYRWRVCNSG; thioether N-13 (inferred); not fully specified) | – | – | – | – | – | Peak intensity, The number of prenyl groups added 0 (KgpF; [1]): 1; Peak intensity, The number of prenyl groups added 1 (KgpF; [1]): 5; Peak intensity, The number of prenyl groups added 2 (KgpF; [1]): 1 |
| YG288 ({CH2CO}-[dY]SNFRIWRYSNSSC; thioether N-14 (inferred)) | – | – | – | – | – | Peak intensity, The number of prenyl groups added 0 (OltF v 2.1; Table 11): 1; Peak intensity, The number of prenyl groups added 1 (OltF v 2.1; Table 11): 5 |
| YG289 ({CH2CO}-[dY]HDYRIWRYHTYPC; thioether N-14 (inferred)) | – | – | – | – | – | Peak intensity, The number of prenyl groups added 0 (OltF v 2.1; Table 11): 1; Peak intensity, The number of prenyl groups added 1 (OltF v 2.1; Table 11): 5 |
